Legend:
[1] = target: T1, soybean LOX-1 (Glycine max, UniProt P08170); experiment: Kinetics of oxygenation of arachidonic acid or arachidonoyl-lysophospholipids by soybean LOX-1; type: biochemical; settings: soybean LOX-1 2.5 units/ml; for Vm: 50 mM borax buffer pH 9.0, unit = one nanomole conjugated diene per min
T1 construct: purchased Sigma-Aldrich Corp (St. Louis, Mo., USA) lipoxidase Type I-B
T1 sequence (P08170 1-839): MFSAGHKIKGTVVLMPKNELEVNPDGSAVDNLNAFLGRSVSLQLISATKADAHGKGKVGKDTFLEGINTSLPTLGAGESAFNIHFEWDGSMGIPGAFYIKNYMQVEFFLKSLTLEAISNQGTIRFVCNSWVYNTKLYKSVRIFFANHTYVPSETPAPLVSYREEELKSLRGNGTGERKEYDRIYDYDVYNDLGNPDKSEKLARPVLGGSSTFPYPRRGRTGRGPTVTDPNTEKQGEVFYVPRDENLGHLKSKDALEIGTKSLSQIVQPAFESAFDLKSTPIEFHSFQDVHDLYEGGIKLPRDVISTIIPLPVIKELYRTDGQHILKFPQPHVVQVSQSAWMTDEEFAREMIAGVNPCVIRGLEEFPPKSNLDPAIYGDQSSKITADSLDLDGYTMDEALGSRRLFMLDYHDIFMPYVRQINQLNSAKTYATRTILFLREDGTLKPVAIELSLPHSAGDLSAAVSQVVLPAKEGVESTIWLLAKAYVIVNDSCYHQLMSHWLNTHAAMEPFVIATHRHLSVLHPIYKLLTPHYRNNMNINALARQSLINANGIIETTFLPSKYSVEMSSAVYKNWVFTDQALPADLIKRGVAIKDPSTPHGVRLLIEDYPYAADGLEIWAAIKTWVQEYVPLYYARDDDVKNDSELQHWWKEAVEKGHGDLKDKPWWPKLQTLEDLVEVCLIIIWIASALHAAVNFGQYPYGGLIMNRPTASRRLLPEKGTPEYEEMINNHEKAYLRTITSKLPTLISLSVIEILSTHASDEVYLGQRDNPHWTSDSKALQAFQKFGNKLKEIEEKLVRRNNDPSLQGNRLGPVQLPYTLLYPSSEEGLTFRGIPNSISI
Description: (§1) Activities of various LOXs were monitored by measuring the increase in absorbance at 234 nm due to the formation of hydroperoxide (ε234=25,000 M^−1 cm^−1) at 25° C. as described before (Smith et al, J. Biol. Chem. 247 (1972) 1038-1047). One unit is defined as the amount of LOXs that can produce one nanomole of conjugated diene per min. The reaction mixture (500 μl) included reticulocyte LOX (2 units/ml) in 50 mM phosphate buffer (pH 7.4), porcine leukocyte LOX (1 unit/ml) in 100 mM phosphate buffer (pH 7.5) containing 5 mM EDTA and 0.03% Tween 20, or soybean LOX-1 (2.5 units/ml) in 50 mM borax buffer (pH 9.0) at 25° C. The reactions were started by including each substrate (100 μM) into the above reaction mixture.
(§2) Reticulocyte LOX (2 units/ml), leukocyte LOX (1 units/ml) or soybean LOX-1 (2.5 units/ml) was incubated with each arachidonoyl derivative substrate of various concentrations as described above. The values of kinetic parameters were obtained according to Lineweaver Burke plot analyses as described before (Barroso et al, J. Chromatogr. B. Analyt. Technol. Biomed. Life. Sci. 814 (2005) 21-28).

[2] = target: T2, Leukocyte 12-lipoxygenase (leukocyte LOX) (Sus scrofa, UniProt P16469); experiment: Kinetics of oxygenation of arachidonic acid or arachidonoyl-lysophospholipids by leukocyte LOX; type: biochemical, porcine; settings: leukocyte LOX 1 unit/ml, 100 mM phosphate buffer pH 7.5, 5 mM EDTA; for Vm: 0.03% Tween 20
T2 construct: purchased Cayman Chemical Co. (Ann Arbor, Mich., USA)
T2 sequence (P16469 1-663): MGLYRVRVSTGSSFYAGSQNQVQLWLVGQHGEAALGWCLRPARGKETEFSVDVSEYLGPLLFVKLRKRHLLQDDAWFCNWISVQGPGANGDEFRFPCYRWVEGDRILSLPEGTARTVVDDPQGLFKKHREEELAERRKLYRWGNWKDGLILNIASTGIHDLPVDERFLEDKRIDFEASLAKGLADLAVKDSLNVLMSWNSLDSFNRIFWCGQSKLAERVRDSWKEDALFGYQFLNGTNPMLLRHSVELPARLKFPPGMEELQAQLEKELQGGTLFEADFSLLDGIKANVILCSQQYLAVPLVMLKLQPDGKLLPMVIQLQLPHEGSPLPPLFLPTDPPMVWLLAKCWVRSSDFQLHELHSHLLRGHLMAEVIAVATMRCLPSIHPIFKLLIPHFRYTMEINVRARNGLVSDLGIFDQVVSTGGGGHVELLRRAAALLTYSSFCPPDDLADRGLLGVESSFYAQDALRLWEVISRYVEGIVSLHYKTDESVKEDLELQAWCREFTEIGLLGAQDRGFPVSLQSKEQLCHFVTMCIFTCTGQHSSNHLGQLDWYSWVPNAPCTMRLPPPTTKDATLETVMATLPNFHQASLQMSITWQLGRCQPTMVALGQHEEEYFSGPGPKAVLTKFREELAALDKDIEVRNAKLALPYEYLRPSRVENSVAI
Description: as §1, §2

[3] = target: T3, Rabbit reticulocyte 15-lipoxygenase (reticulocyte LOX) (Oryctolagus cuniculus, UniProt P12530); experiment: Oxygenation of arachidonoyl lysophospholipids by reticulocyte LOX; type: biochemical; settings: reticulocyte LOX 2 units/ml, 50 mM phosphate buffer pH 7.4
T3 construct: purchased Biomol Inc. (Plymouth Meeting, Pa., USA)
T3 sequence (P12530 1-663): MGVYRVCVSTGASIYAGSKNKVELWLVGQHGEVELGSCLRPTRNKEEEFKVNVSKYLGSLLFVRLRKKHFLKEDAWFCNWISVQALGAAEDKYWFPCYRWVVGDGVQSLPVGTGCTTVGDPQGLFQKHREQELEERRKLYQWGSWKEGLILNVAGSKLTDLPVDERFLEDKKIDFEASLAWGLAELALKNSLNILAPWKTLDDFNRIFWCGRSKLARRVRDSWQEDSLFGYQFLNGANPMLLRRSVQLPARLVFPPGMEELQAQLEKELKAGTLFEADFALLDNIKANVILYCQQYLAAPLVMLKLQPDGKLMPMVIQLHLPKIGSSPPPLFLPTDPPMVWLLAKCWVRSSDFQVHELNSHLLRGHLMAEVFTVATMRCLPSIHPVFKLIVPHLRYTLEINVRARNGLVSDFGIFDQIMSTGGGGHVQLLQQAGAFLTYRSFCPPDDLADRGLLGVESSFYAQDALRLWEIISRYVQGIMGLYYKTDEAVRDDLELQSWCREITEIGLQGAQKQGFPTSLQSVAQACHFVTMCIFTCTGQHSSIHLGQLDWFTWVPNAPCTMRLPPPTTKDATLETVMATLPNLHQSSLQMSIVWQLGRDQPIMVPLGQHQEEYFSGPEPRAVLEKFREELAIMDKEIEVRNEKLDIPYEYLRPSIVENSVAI
Description: as §1, §2
It is noteworthy that the efficacy of arachidonoyl-lysoPC as a substrate for leukocyte LOX was approximately 10-fold greater than that of arachidonic acid. In an additional study, the oxygenation of arachidonoyl-lysoPC or arachidonoyl-lysoPA by reticulocyte LOX was examined. […]

[4] = target: T4, Reticulocyte LOX (Oryctolagus cuniculus, UniProt P12530); experiment: Kinetics of oxygenation of linoleoylated substrates by reticulocyte LOX; type: biochemical, Rabbit; settings: reticulocyte LOX 8.2 units/ml, 50 mM phosphate buffer pH 7.4, 25° C.
T4 construct: purchased Biomol Inc. (Plymouth Meeting, Pa., USA)
T4 sequence (P12530 1-663): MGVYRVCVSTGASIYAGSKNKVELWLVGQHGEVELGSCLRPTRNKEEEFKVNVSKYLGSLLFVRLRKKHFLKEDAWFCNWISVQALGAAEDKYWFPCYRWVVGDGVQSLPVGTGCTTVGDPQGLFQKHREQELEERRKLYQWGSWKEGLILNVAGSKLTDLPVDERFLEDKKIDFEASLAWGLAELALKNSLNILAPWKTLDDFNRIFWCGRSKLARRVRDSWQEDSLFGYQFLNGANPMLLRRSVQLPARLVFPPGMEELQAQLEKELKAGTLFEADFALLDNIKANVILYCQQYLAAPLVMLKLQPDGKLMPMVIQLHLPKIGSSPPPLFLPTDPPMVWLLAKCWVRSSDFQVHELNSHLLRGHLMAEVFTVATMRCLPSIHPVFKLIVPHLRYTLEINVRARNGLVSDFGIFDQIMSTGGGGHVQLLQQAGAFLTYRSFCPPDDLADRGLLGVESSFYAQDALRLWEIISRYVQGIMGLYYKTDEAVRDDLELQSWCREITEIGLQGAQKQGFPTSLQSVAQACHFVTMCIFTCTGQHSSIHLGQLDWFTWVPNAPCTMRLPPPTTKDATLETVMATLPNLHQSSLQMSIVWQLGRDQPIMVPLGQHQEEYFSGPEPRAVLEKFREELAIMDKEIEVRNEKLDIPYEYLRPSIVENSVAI
Source text: Data were expressed as means ±S.D. of results from at least three independent experiments.

[5] = target: T5, lipoxygenase (Glycine max, UniProt P08170); settings: Perez-Gilabert et al. 1998; cited from earlier work
T5 sequence (P08170 1-839): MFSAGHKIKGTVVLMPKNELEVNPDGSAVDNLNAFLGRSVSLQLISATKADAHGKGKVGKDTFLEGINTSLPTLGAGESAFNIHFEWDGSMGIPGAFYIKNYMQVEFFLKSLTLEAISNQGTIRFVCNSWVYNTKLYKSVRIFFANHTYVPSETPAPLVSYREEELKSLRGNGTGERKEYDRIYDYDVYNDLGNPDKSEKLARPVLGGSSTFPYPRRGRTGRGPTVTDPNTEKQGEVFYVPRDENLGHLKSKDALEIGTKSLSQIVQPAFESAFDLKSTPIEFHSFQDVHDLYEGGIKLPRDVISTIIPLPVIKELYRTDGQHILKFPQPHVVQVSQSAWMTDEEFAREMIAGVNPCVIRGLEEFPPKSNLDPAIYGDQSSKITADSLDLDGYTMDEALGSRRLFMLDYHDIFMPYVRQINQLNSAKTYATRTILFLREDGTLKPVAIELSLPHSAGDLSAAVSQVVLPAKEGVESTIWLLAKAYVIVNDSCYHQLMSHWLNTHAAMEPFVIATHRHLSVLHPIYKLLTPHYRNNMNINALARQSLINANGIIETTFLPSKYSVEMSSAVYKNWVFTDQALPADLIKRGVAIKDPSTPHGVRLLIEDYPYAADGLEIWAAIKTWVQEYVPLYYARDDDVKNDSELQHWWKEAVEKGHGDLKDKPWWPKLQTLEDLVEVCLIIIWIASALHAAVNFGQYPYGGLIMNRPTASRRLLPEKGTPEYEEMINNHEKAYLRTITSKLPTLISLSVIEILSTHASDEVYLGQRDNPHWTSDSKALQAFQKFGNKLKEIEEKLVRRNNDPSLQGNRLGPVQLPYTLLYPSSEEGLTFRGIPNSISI

Row | Compound | Km ([1]; 50 mM borax buffer pH 9.0, 25° C.) [µM] | Vm [1] [units/μg] | Vm ([1]; listed as arachidonoyl-lysoPA) [units/μg] | Vm [2] [units/mg] | Km ([2]; 0.03% Tween 20, 25° C.) [µM] | Vm ([2]; listed as arachidonoyl-lysoPA) [units/mg] | Vm/Km value in reticulocyte LOX-catalyzed oxygenation compared with arachidonic acid [3] | Vm [4] [units/mg] | Km ([4]; substrate 3-100 μM) [µM] | lipoxygenation rate relative to linoleic acid (times slower) [5]
1 | CCCCC/C=C\C/C=C\C/C=C\C/C=C\CCCC(=O)OCC(O)COP(=O)(O)O (stereo not shown) [Arachidonoyl-lysoPA, 1-arachidonoyl lysophosphatidic acid] | 15.4 | 147.8 ± 2.3 | 147.8 | 33.5 ± 2.9 | 8.6 | 33.5 | somewhat greater than that of arachidonic acid | – | – | –
2 | CCCCC/C=C\C/C=C\CCCCCCCC(=O)OC[C@H](COP(=O)([O-])OCC[N+](C)(C)C)OC(=O)CCCCCCC/C=C\C/C=C\CCCCC [Dilinoleoyl-PC, Dilinoleoyl phosphatidylcholine] | – | – | – | – | – | – | – | 646 ± 20 | 71.7 ± 6.9 | about 4 times
